Calls of active or inactive are those of the source. The rule behind the calls is not given here.
Assays:
[1] = tested on: L6; assay: Cytotoxicity against rat L6 cells after 70 hrs by alamar blue assay; format: cell-based; details: L6, 70 h
[2] = tested on: Trypanosoma brucei rhodesiense; assay: Antitrypanosomal activity against bloodstream form of Trypanosoma brucei rhodesiense STIB900 infected in NMRI mouse assessed as suppression of parasitemia level in mouse tail blood at 10 mg/kg, ip qd for 4 consecutive days measured 5 days post infection; format: functional, organism-based; parameters: dose 10 mg/kg
[3] = tested on: Trypanosoma brucei rhodesiense; assay: Antitrypanosomal activity against bloodstream form of Trypanosoma brucei rhodesiense STIB900 after 70 hrs by alamar blue assay; format: functional, organism-based; details: STIB900, 70 h
[4] = tested on: Trypanosoma brucei; assay: Antitrypanosomal activity against bloodstream form of Trypanosoma brucei s427 after 72 hrs by MTT assay; format: functional, organism-based; details: s427, 72 h
[5] = tested on: Trypanosoma brucei rhodesiense; assay: Antitrypanosomal activity against bloodstream form of Trypanosoma brucei rhodesiense STIB900 infected in NMRI mouse assessed as suppression of parasitemia level in mouse tail blood at 5 mg/kg, ip qd for 4 consecutive days measured 5 days post infection; format: functional, organism-based; parameters: dose 5 mg/kg
[6] = tested on: Trypanosoma brucei rhodesiense; assay: Antitrypanosomal activity against bloodstream form of Trypanosoma brucei rhodesiense STIB900 infected in NMRI mouse assessed as day of parasitemia relapse at 50 mg/kg, ip qd for 4 consecutive days; format: functional
[7] = tested on: Trypanosoma brucei rhodesiense; assay: Antitrypanosomal activity against bloodstream form of Trypanosoma brucei rhodesiense STIB900 infected in NMRI mouse assessed as suppression of parasitemia level in mouse tail blood at 50 mg/kg, ip qd for 4 consecutive days measured 5 days post infection; format: functional, organism-based; parameters: dose 50 mg/kg
[8] = Chemical stability of the compound in 100 mM phosphate buffer at pH 7.4; format: physicochemical

Row | SMILES | IC50 [1] [µM] | IC50 [3] [µM] | IC50 [4] [µM] | further results
1 | N=C(N)c1ccc(/N=N/Nc2ccc(C(=N)N)cc2)cc1 [DIMINAZENE] | 5 | 0.0058 | – | Activity [2]: Active
2 | CC(=O)Oc1ccc2c(c1)C(c1ccccc1)=CC(C)(C)N2Cc1ccccc1 | 49 | 4.5 | 20 | –
3 | CC(=O)Oc1c(Cl)cc2c(c1Cl)C(C)=CC(C)(C)N2Cc1ccccc1 | 110 | 0.072 | 0.49 | –
4 | N=C(N)c1ccc(OCCCCCOc2ccc(C(=N)N)cc2)cc1 [PENTAMIDINE] | 25 | 0.0013 | 0.012 | Activity [5]: Active
5 | CC(=O)Oc1cc(C)c2c(c1)C(C)=CC(C)(C)N2Cc1ccccc1 | 48 | 43 | 9.2 | –
6 | CC1=CC(C)(C)N(Cc2ccc(F)c(F)c2)c2ccc(O)cc21 | 11 | 0.051 | 0.068 | –
7 | CC(=O)Oc1ccc2c(c1)C(C)=CC(C)(C)N2Cc1ccc(C(C)C)cc1 | 10 | 0.28 | 0.97 | –
8 | CC(=O)Oc1cc2c(cc1C)N(Cc1ccccc1)C(C)(C)C=C2C | – | – | 0.031 | –
9 | Cc1ccc(C(=O)Nc2ccc(S(=O)(=O)O)c3cc(S(=O)(=O)O)cc(S(=O)(=O)O)c23)cc1NC(=O)c1cccc(NC(=O)Nc2cccc(C(=O)Nc3cc(C(=O)Nc4ccc(S(=O)(=O)O)c5cc(S(=O)(=O)O)cc(S(=O)(=O)O)c45)ccc3C)c2)c1 [SURAMIN] | – | – | 0.11 | –
10 | CC(=O)Oc1ccc2c(c1)C(C)=CC(C)(C)N2Cc1ccc(F)c(F)c1 | 17 | 0.025 | 0.079 | –
11 | CCOc1ccc2c(c1)C(C)=CC(C)(C)N2Cc1ccccc1 | 97 | 41 | – | Activity [6]: inactive
12 | CC(=O)Oc1cc2c(cc1-c1ccc(C(F)(F)F)cc1)N(Cc1ccccc1)C(C)(C)C=C2C | > 190 | 9 | 15 | –
13 | CCOc1ccc2c(c1)C(C)=CC(C)(C)N2Cc1ccc(F)c(F)c1 | 90 | 140 | – | Activity [7]: inactive; Activity [6]: inactive
14 | COc1cc(OC(C)=O)cc2c1N(Cc1ccccc1)C(C)(C)C=C2C | – | – | > 100 | –
15 | COc1ccccc1CN1c2ccc(O)cc2C(C)=CC1(C)C.Cl | 12 | 0.014 | 0.045 | Activity [7]: Active; Stability [8]: Unstable
16 | CC(=O)Oc1cc2c(cc1Cl)N(Cc1ccccc1)C(C)(C)C=C2C | 22 | 0.042 | 0.22 | –
17 | COc1ccccc1CN1c2ccc(OC(C)=O)cc2C(C)=CC1(C)C | 17 | 0.011 | 0.041 | Activity [7]: Active
18 | CC(=O)Oc1ccc2c(c1)C(C)=CC(C)(C)N2Cc1ccccc1 | 18 | 0.012 | 0.058 | Activity ([6]; route intraperitoneal): 12.75 days
19 | CC1=CC(C)(C)N(Cc2ccccc2)c2ccc(O)cc21.Cl | 11 | 0.013 | 0.038 | Activity [7]: Active; Stability [8]: Unstable

From ChEMBL document CHEMBL1641541, “Synthesis and antitrypanosomal evaluation of derivatives of N-benzyl-1,2-dihydroquinolin-6-ols: Effect of core substitutions and salt formation” (Bioorg Med Chem, 2011)
